What was measured:
[1] = test system: LiCl-induced conditioned gaping (acute nausea) in rats; experiment: Acute nausea: LiCl-induced conditioned gaping (taste reactivity test) in rats; assay type: in vivo, male Sprague-Dawley rats; details: for LiCl-induced conditioned gaping relative to vehicle: 45 min before conditioning; for Lowest effective dose for suppression of acute nausea-induced conditioned gaping: i.p., rats (FIG. 3)
Excerpt: (§1) Animal procedures complied with the Canadian Council on Animal Care, and the protocols were approved by the Institutional Animal Care Committee at University of Guelph. Animal studies are reported in compliance with the ARRIVE guidelines (Kilkenny et al., 2010; McGrath and Lilley, 2015). A total of 200 näive male Sprague-Dawley rats, obtained from Charles River Laboratories (St Constant, Quebec), were used for all in vivo studies. Rats were individually housed (for acute nausea studies) or pair-housed [for anticipatory nausea and light-dark emergence studies] in home cages made of opaque white plastic (48×26×20 cm), containing bed-o-cob bedding from Harlan Laboratories, Inc. (Mississauga, Ontario), a brown paper towel, and Crinkl'Nest™ from The Andersons, Inc. (Maumee, Ohio). Additionally, in the home cage, rats were provided with a soft white paper container that was 14 cm long and 12 cm in diameter. All rats were subjected to an ambient temperature of 21° C. and a 12/12 h light-dark schedule (lights off at 07:00 h) and maintained on food (Highland Rat Chow [8640]) and water ad libitum. For the acute and anticipatory nausea studies, their body weights ranged from 263 to 329 g on the day of conditioning. For the light-dark emergence studies, their body weights ranged from 320 to 387 g on the day of test.
For the studies of acute nausea (in vivo experiment 1), rats were placed in taste reactivity (Grill and Norgren, 1978) chambers with their cannula attached to an infusion pump (Model KDS100, KD Scientific, Holliston, Mass., USA) for fluid delivery. The taste reactivity chambers were made of clear Plexiglas (22.5×26×20 cm) that sat on a table with a clear glass top. A mirror beneath the chamber at a 45° angle facilitated viewing of the ventral surface of the rat to observe orofacial responses. The conditioning chamber was in a dark room next to a 25 W light source. A video camera (Sony DCR-HC48, Henry's Cameras, Waterloo, ON, Canada) fire-wired into a computer was focused on the mirror and used to record each rat's orofacial reactions during the 2 min taste reactivity test. The video tapes were later scored using ‘The Observer’ (Noldus Information Technology Inc., Leesburg, Va., USA) software.
All rats were surgically implanted with an intraoral cannula according the procedures described by Limebeer et al. (2010). On the day of surgery, the rats were injected with an antibiotic (Derapin: […] s.c.; Pfizer Animal Health, Pfizer Canada Inc, Kirkland, Quebec, Canada) 30 min prior to being anaesthetized with isoflurane (4-5% induction, 1.5% maintenance in O2). Surgical plane anesthesia, as indicated by absence of the hind limb withdrawal reflex and defined by the Canadian Council of Animal Care, was induced before any surgery began, and was adjusted as necessary. Once sufficient anesthesia had been induced, a 2 cm^2 section of skin was shaved at the back of the neck at the level of the scapula. The skin was prepared by cleaning with soap (Bactistat; Ecolab, St. Paul, Minn., USA) and wiping with 70% isopropyl alcohol followed by 7% Betadine solution (Purdue Products L.P., Stamford, Conn., USA). Each rat was then administered a 5 mg·kg^−1 injection (i.p.) of the anti-inflammatory/analgesic drug carprofen (Rimadyl; Pfizer Canada Inc., Kirkland, Quebec, Canada). A thin-walled 15-gauge stainless steel needle was inserted into the shaved area on the neck, directed subcutaneously around the ear and brought out behind the first molar inside the mouth. A 10 cm length of Intra Medic PE90 tubing (Clay Adams Brand; Becton Dickinson and Co., Sparks, Md., USA) with an inner diameter of 0.86 mm and an outer diameter of 1.27 mm was then inserted through the needle after which the needle was removed. Betadine (10%) was applied to the puncture site and three elastic discs (2 cm^2) were placed over the exposed end of the tubing and drawn to the skin at the back of the neck for the purpose of stabilizing the cannula. […]

[2] = test system: contextually elicited conditioned gaping (anticipatory nausea) in rats; experiment: Anticipatory nausea: contextually elicited conditioned gaping in rats; assay type: in vivo, male Sprague-Dawley rats; details: for Contextually elicited conditioned gaping compared to VEH controls: 45 min before test
Excerpt: as §1
For in vivo experiment 2, contextually elicited conditioned gaping (a model of anticipatory nausea) was measured using a distinctive conditioning chamber made of opaque black Plexiglass (22.5×26×20 cm) with an opaque lid that sat on a table with a clear glass top. A mirror beneath the chamber at a 45° angle facilitated viewing of the ventral surface of the rat to observe orofacial responses. The conditioning chamber was in a dark room next to a 25 W light source. A video camera that was fire-wired into a computer was focused on the mirror to record each rat's orofacial reactions during the 5 min test trial. The video tapes were later scored using ‘The Observer’ software. To assess activity, an activity chamber made of white Plexiglas (60×25×25 cm) was used, illuminated by a red light found in a different room that the contextual chamber was used to create a different context from the AN chamber. The activity of each rat was captured by video camera and sent to the Ethovision software program (Noldus, Inc., NL) to measure distance (cm) travelled.
To compare the potential of HU-580 and CBDA to reduce anticipatory nausea, the contextually elicited conditioned gaping paradigm was used (e.g. Limebeer et al., 2010; Rock et al., 2014). Rats underwent four conditioning trials during which the distinctive context was paired with 127 mg·kg^−1 LiCl. On each trial, rats were injected with LiCl and then immediately placed in the conditioning chamber for 30 min. This procedure was repeated four times with a 48 h interval between conditioning trials. For the test trial, rats were randomly assigned to one of five treatment groups (n=6 per group): VEH, 0.1 μg·kg^−1 CBDA, 0.1 μg·kg^−1 HU-580, 0.01 μg·kg^−1 CBDA, […] HU-580. Pretreatments were injected 45 min before the rats were given an saline injection (20 mL·kg^−1 i.p.) and individually placed in the conditioning (contextual) chamber for 5 min, and orofacial responses were video recorded. To investigate the mechanism of action of HU-580, two additional groups of rats were administered 0.1 mg·kg^−1 WAY-VEH (n=8), 0.1 mg·kg^−1 WAY-0.1 μg·kg^−1 HU-580 (n=8). VEH or WAY100635 were administered 15 min before […] or VEH. The video tapes from the test trial were scored by an observer blind to the experimental conditions using ‘The Observer’ for the behaviors of gaping (large openings of the mouth and jaw, with lower incisors exposed). […]

[3] = test system: LiCl-induced conditioned gaping (acute nausea) in rats; details: i.p.; literature (Bolognini et al., 2013; Rock et al.); cited from earlier work
[4] = test system: anxiety-like responding in rats; details: i.p.; literature (Rock et al., 2017); cited from earlier work
[5] = Stability on storage at 4° C.; details: stored at 4° C. (21 days for the comparison)
[6] = 0.1 μg·kg−1 HU-580 i.p., WAY100635 0.1 mg·kg−1 15 min before

| SMILES | LiCl-induced conditioned gaping relative to vehicle ([1]; 0.1 μg·kg−1 i.p.) | LiCl-induced conditioned gaping relative to vehicle ([1]; 1 μg·kg−1 i.p., P<0.05) | Lowest effective dose for suppression of acute nausea-induced conditioned gaping [1] [µg/kg] | Contextually elicited conditioned gaping compared to VEH controls ([2]; 0.01 μg·kg−1 i.p.) | Contextually elicited conditioned gaping compared to VEH controls ([2]; 0.1 μg·kg−1 i.p., P<0.05) | Dose as low as which anti-nausea effects are induced (vomiting in Suncus murinus, conditioned gaping in rats) [3] [µg/kg] | Doses as low as which anxiolytic-like effects are produced under conditions of high stress [4] [µg/kg] | Suppressive effect on acute nausea after 5-HT1A antagonist pretreatment [1, 6] | Suppressive effect on anticipatory nausea after 5-HT1A antagonist pretreatment [2, 6] | Dose as low as which contextually elicited conditioned gaping is suppressed ([2]; i.p., rats) [µg/kg] | Stability when stored [5] |
| --- | --- | --- | --- | --- | --- | --- | --- | --- | --- | --- | --- |
| C=C(C)[C@@H]1CCC(C)=C[C@H]1c1c(O)cc(CCCCC)c(C(=O)O)c1O [CBDA, Cannabidiolic acid] | subthreshold | reduced LiCl-induced gaping responses relative to vehicle | 1 | but not CBDA, suppressed contextually elicited conditioned gaping | reduced conditioned gaping | 1 | 0.1 | – | – | – | – |
| C=C(C)[C@@H]1CCC(C)=C[C@H]1c1c(O)cc(CCCCC)c(C(=O)OC)c1O [HU-580, Cannabidiolic Acid Methyl Ester] | reduced LiCl-induced conditioned gaping behavior relative to vehicle | reduced LiCl-induced gaping responses relative to vehicle | 0.1 | gaping significantly less than VEH controls | reduced conditioned gaping | – | – | blocked by WAY100635 | blocked by pretreatment with WAY100635 | 0.01 | more stable than CBDA |

Reference: patent US11440870B2, “Cannabidiolic acid esters compositions and uses thereof” (Yissum Research Development Company of the Hebrew …, priority 2017, dated 2022)
